Measurements as given in PubChem BioAssay AID1627 (PCMD, 2009).
Results filed as inconclusive are left out. The source made the active and inactive calls. How the calls were made is not given here.

Molecular target: Procathepsin L (Homo sapiens) (UniProt P07711)
Assay: cathepsin L inhibition with added cysteine, dose response, biochemical, cysteine present (AID 1627)
Conditions: purified cathepsin L, fluorogenic substrate

Procathepsin L (Homo sapiens), sequence (P07711 114-288 limits assumed): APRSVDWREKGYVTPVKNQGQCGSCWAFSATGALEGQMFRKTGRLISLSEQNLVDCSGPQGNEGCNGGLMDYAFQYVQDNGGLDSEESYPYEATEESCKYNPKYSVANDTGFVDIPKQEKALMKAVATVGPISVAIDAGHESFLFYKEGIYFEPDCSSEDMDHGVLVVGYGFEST
Procathepsin L (Homo sapiens), sequence (P07711 292-333 limits assumed): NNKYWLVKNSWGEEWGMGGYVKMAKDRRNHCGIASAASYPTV

SMILES | IC50
COc1ccc(OC)c(C2C(C#N)=C(N)Oc3cc(C)n(Cc4ccccn4)c(=O)c32)c1 (stereo not given) | > 50 µM (inactive)
Nc1nc2n(n1)C1(CCCCC1)C1=C(CCCC1)N2 | > 50 µM (inactive)
CC1=C(C(=O)Nc2ccc(F)cc2)C(c2cccc(C)c2)n2nc(CCCO)nc2N1 (stereo not given) | > 50 µM (inactive)
CN1CCc2c(sc3ncn4nc(-c5ccccc5O)nc4c23)C1 | 32 µM
O=S(=O)(/N=S1/CC=CCN1S(=O)(=O)c1ccccc1)c1ccccc1 (stereo not given) | > 50 µM (inactive)
N#CC1=C(N)Oc2c(sc3ccccc23)C1c1ccco1 (stereo not given) | > 50 µM (inactive)
CC(=O)Nc1nc2n(n1)C(c1ccc(F)cc1)C=C(c1ccccc1)N2 (stereo not given) | > 50 µM (inactive)
CC(=O)c1c(O)n(C)c(=S)n(-c2ccccc2)c1=O | > 50 µM (inactive)
CCCCOc1ccc(C2C3CN(C(=O)OCC)CC=C3C(C#N)=C(N)C2(C#N)C#N)cc1OC (stereo not given) | > 50 µM (inactive)
CCCCc1[nH]nc2c1C1(C(=O)N(CC)c3ccccc31)C(C#N)=C(N)O2 (stereo not given) | > 50 µM (inactive)
